# ChEMBL document CHEMBL1157539, “Thousands of chemical starting points for antimalarial lead identification” (Nature, 2010)
# Tested on: Plasmodium falciparum
# Experiment: GSK_TCMDC: Inhibition of Plasmodium falciparum 3D7 in whole erythrocytes, using parasite LDH activity as an index of growth.
# Type: functional, organism-based
# Settings: not given
row,SMILES,XC50 [µM]
1,C[C@H](CNc1ccnc(Nc2ccc3[nH]c(=O)[nH]c3c2)n1)c1ccccc1,0.7

# Same assay, conditions: Plasmodium falciparum, 3D7
row,SMILES,XC50 [µM]
1,Cc1cc(N[C@@H](Cc2ccccc2)C(=O)Nc2ccccc2)nc(NCCc2cccs2)n1,0.796
2,CCCCCSc1cc(O)c(C(CNC)C(C)C)cc1OC (stereo unspecified),0.163
3,O=C(CCC1CCCC1)N(Cc1ccc(-c2ccc(CNCCc3ccccc3)cc2)cc1)C1CCCNC1 (stereo unspecified),1.22
4,COc1ccc(-c2ccccc2OCCCNc2nc(NCCc3ccc(O)cc3)nc(N3CCNCC3)n2)cc1,0.785
5,Cc1ccccc1C1CCN(c2ccc(C(=O)Nc3ccc(F)cc3)cn2)CC1,0.194
6,Cc1cccc2nc(-c3ccc(-c4cccc(CNCc5cnn(-c6ccccc6)n5)c4)s3)[nH]c12,0.551
7,NC(=O)C1CCN(Cc2cccc(-c3cccc(-c4nc5cc(F)ccc5[nH]4)c3)c2)CC1,0.853
8,COc1ccc(CCn2c(=N)c(C(=O)NCc3ccccc3)cc3c(=O)n4cccc(C)c4nc32)cc1,0.339
9,c1ccc(C2=NN=C(c3ccccn3)C3C4CC(C23)C2C3CC(c5ccccc53)C42)nc1 (stereo unspecified),0.853
10,O=C(Nc1cccc(-c2ccc(-c3nc4cc(C(F)(F)F)ccc4[nH]3)s2)c1)c1cccnc1,0.363
11,COc1cc(NC(=O)c2sc(-c3ccc(Cl)cc3)cc2NC(=O)CN2CCCC2)ccc1OCCN1CCCC1,0.927
12,O=C(Nc1ccccc1)N(Cc1ccc(-c2ccc(CNC3CCCC3)cc2)cc1)C1CCN(Cc2ccccc2)CC1,0.408
13,O=C(CC1SC(N2N=C(c3cccs3)CC2c2ccccc2)=NC1=O)Nc1ccc(Cl)cc1 (stereo unspecified),1.68
14,CC(=O)Nc1cccc(C(=O)Nc2cccc(-c3csc(-c4nc5ccccc5[nH]4)c3)c2)c1,0.181
15,CC(C)C1=CC(=NOS(=O)(=O)c2ccccc2)C=C(C(C)C)C1=O,0.712
16,COc1cccc(CNC(=O)[C@@H]2CN(C(=O)c3ccccc3)CCN2)c1,1.16
17,CN1CCN(CCCN(Cc2ccc(-c3cccc(CNCc4ccc5c(c4)OCO5)c3)cc2)C(=O)NC2CCCCC2)CC1,0.988
18,Nc1nc(O)c2c(n1)CCc1c(Br)cccc1-2,0.697
19,O=C(Nc1ccc(F)c(Cl)c1)NC1CCN(c2ccnc3cc(Cl)ccc23)C1 (stereo unspecified),0.215
20,Cc1[nH]c(C)c(-c2ccc(Oc3cccc(C(F)(F)F)c3)cc2)c(=O)c1Br,0.00769
21,COc1ccc2[nH]cc(C3=CCN(CC4CC4C(=O)c4ccccc4)CC3)c2n1 (stereo unspecified),0.27
22,CN1CCN(CCCCCCNc2c3ccccc3nc3ccccc23)CC1,0.722
23,c1cc2[nH]c(CCCCCc3nc4cc(C5=N[C@@H]6CCCC[C@@H]6N5)ccc4[nH]3)nc2cc1C1=N[C@@H]2CCCC[C@@H]2N1,0.199
24,CC(=O)C=C1CC(=O)N(C[C@@H](O)[C@H]2O[C@@H]3OC(C)(C)O[C@@H]3[C@H]2O)c2ccccc2N1,1.26

row,SMILES,XC50 [µM]
1,COc1ccc(CNCc2ccc(-c3cccc(-c4nc5cccc(C)c5[nH]4)c3)cc2)cc1,0.13
2,CC(C)c1ccc(CN2CCCCC(NC(=O)c3cc(-c4ccccc4F)cs3)C2)cc1 (stereo unspecified),0.672
3,CC(Oc1ccc(Cl)cc1)C(=O)Nc1cc(C(F)(F)F)ccc1-n1cncn1 (stereo unspecified),0.151
4,CCCCN(Cc1cc(Cl)c(OC)c(OC)c1)c1ccc(C(O)(C(F)(F)F)C(F)(F)F)cc1,0.194
5,COC(=O)Nc1cc(C(F)(F)F)ccc1N1CCC(CNS(=O)(=O)c2ccc(OC)cc2)CC1,0.249
6,O=C(Nc1ccc(Cn2ncc(N3CCCNCC3)c(Cl)c2=O)cc1)Nc1cccc(SC(F)(F)F)c1,0.675
7,COc1ccc(-c2cccc(CNC3CCN(C)CC3)c2)cc1S(=O)(=O)NCc1ccccc1,0.874
8,CC(C)c1cccc(OCC2CCN(c3ncc(C(=O)NC4CC4)cc3Cl)CC2)c1,0.681
9,COc1ccc2c(=NN=Cc3ccccc3)cc(C)[nH]c2c1,0.846
10,CCOC(=O)c1c(-c2ccccc2)c(C(=O)OCC)n2ccccc12,0.614
11,Cc1ccc(O)cc1Nc1c(C(N)=O)cnc2ccc(-c3cncs3)cc12,0.67
12,COc1ccc(-n2nc(C(=O)NCc3ccccc3OC)c3ccccc3c2=O)cc1,0.217
13,O=C(Nc1cccc(C(F)(F)F)c1)NC1CCN(c2ccnc3cc(Cl)ccc23)CC1,0.289
14,COc1ccc(Cc2nc3c(n2C(C)=O)SC(c2ccc(Cl)c(Cl)c2)=NN3C(C)=O)cc1,0.809
15,Cc1nc(N)nc(N)c1CCCOc1ccc(Br)cc1,0.485
16,Cc1[nH]c(C)c(-c2ccc(C#Cc3ccc(F)cc3F)cc2)c(=O)c1Br,0.0301
17,CN1CCC(Oc2cc(NC(=O)Nc3ccc(-c4ccncc4)c(Cl)c3)ccc2Cl)CC1,0.53
18,COc1cccc(NC(=O)c2cc([N+](=O)[O-])ccc2NC(=O)CN2CCc3ccccc3C2)c1,0.589
19,O=C(Nc1ccc(Cl)cc1)c1cccc(CN2CCCN(Cc3cccc(O)c3)CC2)c1,0.957
20,CC(=O)Nc1ccc(C#Cc2ccc(-c3c(C)[nH]c(C)c(Cl)c3=O)cc2)cc1,0.462
21,O=C(NC1CCC(CN2CCC(c3c[nH]c4ccccc34)CC2)CC1)c1cc(-c2cccc(Cl)c2)n(-c2ccc(Cl)cc2Cl)n1 (stereo unspecified),1.08
22,Cc1cc(O)c(-c2ccc(Oc3ccc(F)cc3)cc2)c(C)n1,0.972
23,Cc1cccc(-c2ccc(NC(=O)C3CCN(Cc4cccc(O)c4)CC3)cc2)c1,0.975
24,CC(=O)Nc1nc(C(=O)Nc2ccc(-c3ccc(-c4nc5cccc(C)c5[nH]4)cc3)cc2)cs1,0.182

row,SMILES,XC50 [µM]
1,O=C(NCCCN1CCOCC1)c1ccc(-c2cccc(NC(=O)c3ccc(Cl)c(Cl)c3)c2)cc1,0.683
2,COc1cc(CNC[C@@H](O)[C@H](Cc2ccccc2)NC(=O)c2cc(OC(C)C)cc(N3CCCS3(=O)=O)c2)cc(OC)c1,0.798
3,O=C(C=Cc1ccc(Cl)c(Cl)c1)NCCCCCN1CCC(CCNC(=O)c2sc3ccccc3c2Cl)CC1,1.01
4,Cc1cccc2nc(-c3ccc(-c4ccc(CN5CCN(c6ccncc6)CC5)cc4)cc3)[nH]c12,0.163
5,Cc1ccoc1C(=O)Nc1cccc(-c2cccc(-c3nc4cc(C(F)(F)F)ccc4[nH]3)c2)c1,0.613
6,Oc1ccccc1CN1CCC(CCOC(c2ccccc2)c2ccc(Cl)cc2)CC1 (stereo unspecified),0.743
7,CC(C)(C)CC(=O)Nc1ccc(Nc2cc(-c3ccncc3)cc3ncc(C(N)=O)cc23)cc1,0.7
8,COc1ccc(CNCc2ccccc2)cc1-c1ccc(OC)c(S(=O)(=O)NCCN2CCCC2)c1,0.827
9,CN(CCO)Cc1cccc(-c2ccc(NC(=O)c3cccc(C#N)c3)cc2)c1,0.796
10,CCCc1ccc(C2CCN(CCCCNC(=O)c3ccc(NC(=O)c4ccc(Cl)cc4)cc3)CC2)cc1,0.629
11,O=C1COC2(CN1CC1CCN(Cc3ccc(O)c(Cl)c3)C1)c1ccccc1-c1ccccc12 (stereo unspecified),1.06
12,Cc1cc(CNCCCCCCNCc2ccc(Cl)cc2)ccc1O,0.823
13,C=CCOc1ccc(Cc2cnc(N)nc2N)cc1CCC,1.02
14,CCN1CCN(c2cc(C)c3cc(NC(=O)c4ccc(N(CC)CC)cc4)ccc3n2)CC1,0.962
15,Cn1nc(-c2cccc(CNC3CCc4ccccc43)c2)c2cnc(NC3CCCC3)nc21 (stereo unspecified),0.857
16,CCCCCOc1ccc(C(O)C(CN2CCCCC2)c2ccccc2)cc1 (stereo unspecified),0.877
17,Nc1nc2c(cnn2CCCCCCCP(=O)(O)O)c(=O)[nH]1,0.469
18,CSc1ccc(C[C@@H](C)NC[C@H](O)c2cccc(Cl)c2)cc1,0.94
19,CN1CC(c2ccccc2)c2cc(O)c(CN3CCCCC3)cc2CC1Cc1ccccc1 (stereo unspecified),0.176
20,CC(Cc1ccc(Sc2ccccc2)cc1)NCC(O)c1cccc(C(F)(F)F)c1 (stereo unspecified),0.589
21,CCOC(=O)c1nc(-c2cccnc2)[nH]c1NC(=S)NCc1ccccc1,0.711
22,S=C(NCCCCCN1CCC(c2c[nH]c3ccccc23)CC1)Nc1cc(Cl)cc(Cl)c1,0.868
23,Cc1cc(O)c(C(C)C)cc1C1(c2cc(C(C)C)c(O)cc2C)OC(=O)c2ccccc21,0.871
24,CC[C@H]1CN2CC[C@@H]1C[C@H]2[C@H](O)c1cc(-c2cc(Cl)cc(Cl)c2)nc2ccc(OC)cc12,0.235

row,SMILES,XC50 [µM]
1,CCOc1ccc2c(=NN=Cc3ccccc3F)cc(C)[nH]c2c1,0.676
2,O=C(/C=C/c1ccc(Cl)c(Cl)c1)N1CCC(CN2CCC(c3c[nH]c4ccc(NS(=O)(=O)c5cccs5)cc34)CC2)CC1,0.218
3,c1cc(CNCCc2ccncc2)cc(-c2csc(-c3nc4ccccc4[nH]3)c2)c1,0.258
4,COc1c(C2CCN(CCN3CCC(CNC(=O)c4ccc(-c5ccc(C#N)cc5)cc4)CC3)CC2)ccc2c1CCCC2,0.455
5,O=C(NCCN1CCCC1)c1cccc(-c2ccc(-c3nc4cc(F)ccc4[nH]3)cc2)c1,0.722
6,CC(=O)c1cc(N2CCOCC2)ccc1N,0.913
7,COc1ccc2nccc(NCC3(O)CCC(NCc4ccc5c(n4)NC(=O)CS5)CC3)c2n1 (stereo unspecified),0.689
8,O=C(NNC(=O)c1ccc(CCN2CCC(c3nc(COCC(F)(F)F)c(-c4ccc(F)cc4)o3)CC2)cc1)Nc1ccc(Oc2ccccc2)cc1,0.708
9,CN(C)CCCNCc1ccc(-c2ccc(CNCCc3ccccc3)cc2)cc1,0.994
10,COc1cc2nc(Nc3ccc4c(cnn4Cc4ccccc4)c3)nc(Nc3ccc4c(cnn4Cc4ccccc4)c3)c2cc1OC,0.194
11,CNc1ccc(CNCc2cccc(-c3ccc(-c4nc5ccccc5[nH]4)cc3)c2)cc1,0.3
12,CCOc1ccc2nc(C)cc(N/N=C/c3ccccc3[N+](=O)[O-])c2c1,0.0296
13,CN1CCC(N2CCN(Cc3cccc(-c4ccc(-c5nc6ccccc6[nH]5)cc4)c3)CC2)CC1,0.156
14,O=C(Nc1ccccc1)N(Cc1cccc(-c2ccc(CNCc3ccc4c(c3)OCO4)cc2)c1)C1CCN(Cc2ccccc2)CC1,0.325
15,Cc1cc2nc(-c3cc(-c4cccc(NS(C)(=O)=O)c4)cnc3N)[nH]c2cc1C,0.672
16,CS(=O)(=O)c1ccc2[nH]c(-c3cc(-c4ccc(OCCN5CCOCC5)cc4)cnc3N)nc2c1,1.06
17,c1ccc(-c2nc(NC3CCCCC3)cc(C3CC3)n2)nc1,0.728
18,Cc1nc(-c2cccc(C(=O)NC3CCC(CCN4CCc5ccc(-c6cccnc6)cc5CC4)CC3)c2)no1 (stereo unspecified),0.762
19,COc1cccc(CN2CCC(N3CCc4cc(NC(=O)c5cc(C)on5)ccc43)C2)c1OC (stereo unspecified),0.952
20,COc1ccnc(NCCCNCc2cn(S(=O)(=O)c3ccccc3)c3ccccc23)c1,0.79
21,Cc1cccc2nc(-c3cccc(-c4ccc(NC(=O)C(C)CN5CCOCC5)cc4)c3)[nH]c12 (stereo unspecified),0.689
22,Cn1c(Cc2ccccc2)nnc1Sc1ccc(C#N)c([N+](=O)[O-])c1,0.907
23,Cc1cc(OCC2CCN(c3ccc(C(=O)NC4CC4)cn3)CC2)ccc1F,0.868
